Experimental data published in patent publication US8158605B2, “Azacytidine analogues and uses thereof” (Mount Sinai School of Medicine, priority 2007, dated 2012).

Experiments:
[1] = system: U937, HL60 and K562 cells; assay: Differentiating induction (NBT reduction, benzidine staining); format: cell-based, human; conditions: repeated exposure for 11 (HL60) or 14 (U937, K562) days
Description: Cell differentiation was studied in terms of morphology. […] After initial treatment on day 0, cells were exposed to the new portions of drugs on day 4, 7, and 10. The differentiation was evaluated by NBT reduction assay (U937 and HL60) or by benzidine staining (K562).

[2] = system: Hela cervix carcinoma cells; assay: MTT cytotoxicity with or without nucleoside transport inhibitor dipyridamole; format: cell-based; conditions: for IC50: Homo sapiens, HeLa, 72 h, MTT
Description: Dipyridamole was used as an inhibitor of the equilibrative nucleoside transporters hENT1 and hENT2. […] The cells were pre-incubated for 24 hours. Dipyridamole (10 μM) was added to the cells 30 minutes prior to the addition of the test compounds. […] Six wells were used per test concentration. The cells were incubated with test compound for 72 hours.

[3] = system: MT-3/ADR resistant breast carcinoma; assay: MTT cytotoxicity; format: cell-based; conditions: MDR1, MT-3/ADR resistant breast carcinoma (overexpress MDR-1/p-glycoprotein), 24 hours
Description: (§1) The cytotoxicity of Aza-C and 5-Aza-C-5′-elaidic acid was determined in a breast cancer cell line MT-3 and the adriablastin resistant cell line MT-3/ADR. The MT-3/ADR overexpress the MDR-1/p-glycoprotein. […] The cells were incubated for 24 hours. […] Six wells were used per test concentration. The cells were incubated with test compound for 24 hours. […] Similar activity was obtained for Aza-C and 5-Aza-C-5′-elaidic acid in the MT-3 breast carcinoma cell line, but in the MT-3/ADR resistant cell line the activity of Aza-C was lost. […] This may be of importance in the treatment of resistant cancer.

[4] = system: breast carcinoma cell line MT-3; assay: MTT cytotoxicity; format: cell-based; conditions: MT-3 breast carcinoma, 24 hours
Description: as §1

[5] = clinical plasma samples; cited from earlier work
U937 = assay: WST-1 cytotoxicity assay; format: cell-based; conditions: Homo sapiens, U-937
Description: (§2) Human promyelocytic leukemia cell lines HL60, human histiocytic lymphoma U937, human chronic myelogenous leukemia K562, human acute T cell Jurkat, breast adenocarcinoma MCF-7, urinary bladder carcinoma 5637, prostate carcinoma DU-145 were purchased from American Type Culture Collection. All cell lines except Jurkat were maintained in RPMI 1640 medium (Gibco, Glasgow, UK) supplemented with 10% heat-inactivated fetal calf serum (FCS), 100 U/ml of penicillin, and […] streptomycin, in an atmosphere of 5% CO2 at 37° C. Jurkat cells were cultured in RPMI 1640 medium supplemented with 1.5 g/L sodium bicarbonate, 4.5 g/L glucose, 10 mM sodium pyruvate, and 10% FCS, 100 U/ml of penicillin, and […] streptomycin.
(§3) MCF-7, DU-145, and 5637 cells (1×10^4/ml) were plated and allowed to adhere and spread for 24 hours. […] Cultures were incubated with WST-1 reagent for 1 hour. The production of formazan was measured by a microplate reader (Bio-Tek Instruments, Elx 800) at 450 nm with a reference wavelength of 650 nm. Growth inhibition was determined as compared to untreated cells (%). IC50 values were calculated using CalcuSyn software (Biosoft).

MCF-7 = assay: WST-1 cytotoxicity assay; format: cell-based; conditions: Homo sapiens, MCF7
Description: as §2, §3

HL60 = assay: WST-1 cytotoxicity assay; format: cell-based; conditions: Homo sapiens, HL-60
Description: as §2, §3

K562 = assay: WST-1 cytotoxicity assay; format: cell-based; conditions: Homo sapiens
Description: as §2, §3

DU145 = assay: WST-1 cytotoxicity assay; format: cell-based; conditions: Homo sapiens, DU-145
Description: as §2, §3

5637 = assay: WST-1 cytotoxicity assay; format: cell-based
Description: as §2, §3

Jurkat = assay: WST-1 cytotoxicity assay; format: cell-based; conditions: Homo sapiens
Description: as §2, §3

NFκB = assay: LPS stimulated NFκB luciferase reporter activity in U937 cells; format: cell-based, human; conditions: 10 nM, LPS 1 μg/ml, 1, 3 or 6 hours, compared to DMSO treated control
Description: NFκB-luciferase reporter genes were used to determine the influence of Aza-C and 5-Aza-C-5′-elaidic acid on NFκB-induced luciferase activity in a human monocytic cell line U937, stably transfected with a luciferase reporter containing three NFκB-binding sites. The induction of NFκB was performed using lipopolysaccharide (LPS) at 1 μg/ml for 30 minutes prior to the addition of Aza-C or 5-Aza-C-5′-elaidic acid in the concentrations 10 nM to the medium. The cells were cultured in RPMI-1640 medium including 10% fetal bovine serum. Before stimulation with LPS the cells were transferred to medium containing only 2% fetal bovine serum. Luciferase activity was measured by imaging in an IVIS imaging System 100 (Xenogen Corp., USA) after 1, 3 or 6 hours. The LPS stimulation increased with time over the 6 hours followed in the DMSO treated control cells. […] Generally, a positive stimulation of NFκB as observed for azacytidine is not positive, and it is positive that the LPS stimulation is not further increased by 5′Aza-C-5′-elaidic acid.

## Nc1ncn([C@@H]2O[C@H](CO)[C@@H](O)[C@H]2O)c(=O)n1 [5-AzaC, 5-azacytidine, reference compound]
[1]
  differentiation induction: did not induce significant differentiation
[2]; Hela, with vs without dipyridamole
  activity reduced by addition of dipyridamole: 3 fold
[2]; Hela with dipyridamole (10 μM)
  IC50: 12.8 µM
[2]; without dipyridamole
  IC50: 4.32 µM
[3]
  IC50: > 100 µM
[4]
  IC50: 12.6 ± 2.35 µM
[5]
  average terminal half-life: 1.50 ± 2.30 h
U937; U937, 24 hour treatment
  IC50: 1.63 µM
U937; U937, 48 hour treatment
  IC50: 2.37 µM
U937; U937, 72 hour treatment
  IC50: 4.77 µM
MCF-7; MCF-7, 24 hour treatment
  IC50: > 160 µM
MCF-7; MCF-7, 48 hour treatment
  IC50: 93.7 µM
MCF-7; MCF-7, 72 hour treatment
  IC50: 53 µM
HL60; HL60, 24 hour treatment
  IC50: 7.28 µM
HL60; HL60, 48 hour treatment
  IC50: 4.92 µM
HL60; HL60, 72 hour treatment
  IC50: 4.71 µM
K562; K562, 24 hour treatment
  IC50: 8.27 µM
K562; K562, 48 hour treatment
  IC50: 15.5 µM
K562; K562, 72 hour treatment
  IC50: 5.83 µM
DU145; DU145, 24 hour treatment
  IC50: 20.9 µM
DU145; DU145, 48 hour treatment
  IC50: 7.11 µM
DU145; DU145, 72 hour treatment
  IC50: 7.2 µM
5637; 5637, 24 hour treatment
  IC50: 24.6 µM
5637; 5637, 48 hour treatment
  IC50: 6.72 µM
5637; 5637, 72 hour treatment
  IC50: 5.21 µM
Jurkat; 24 hour treatment
  IC50: 9.5 µM
Jurkat; 48 hour treatment
  IC50: 5.32 µM
Jurkat; 72 hour treatment
  IC50: 4.77 µM
NFκB
  LPS stimulated NFκB luciferase activity: further increased the LPS induced NFκB activation
